Laboratory results published in patent publication US20180169135A1, “METHOD FOR PREVENTING TRANSPLANT FAILURE IN A HOST” (Universiteit Maastricht, priority 2015, published 2018).

Target: Histon H3 (Homo sapiens, UniProt P68431)

heparin [UFH]
neutralization of the cytotoxic activity of Histon H3: neutralize the cytotoxic activity of Histon H3
